We go through 1 molecule from PMC7607426, “Vicinal difluorination as a C=C surrogate: an analog of piperine with enhanced solubility, photostability, and acetylcholinesterase inhibitory activity” (Beilstein Journal of Organic Chemistry, 2020).

The target of the experiment is acetylcholinesterase (AChE) (Electrophorus electricus, UniProt O42275). Kind of experiment: colorimetric AChE inhibition assay. It is filed as biochemical.
Sequence of acetylcholinesterase (AChE) (O42275 24-633): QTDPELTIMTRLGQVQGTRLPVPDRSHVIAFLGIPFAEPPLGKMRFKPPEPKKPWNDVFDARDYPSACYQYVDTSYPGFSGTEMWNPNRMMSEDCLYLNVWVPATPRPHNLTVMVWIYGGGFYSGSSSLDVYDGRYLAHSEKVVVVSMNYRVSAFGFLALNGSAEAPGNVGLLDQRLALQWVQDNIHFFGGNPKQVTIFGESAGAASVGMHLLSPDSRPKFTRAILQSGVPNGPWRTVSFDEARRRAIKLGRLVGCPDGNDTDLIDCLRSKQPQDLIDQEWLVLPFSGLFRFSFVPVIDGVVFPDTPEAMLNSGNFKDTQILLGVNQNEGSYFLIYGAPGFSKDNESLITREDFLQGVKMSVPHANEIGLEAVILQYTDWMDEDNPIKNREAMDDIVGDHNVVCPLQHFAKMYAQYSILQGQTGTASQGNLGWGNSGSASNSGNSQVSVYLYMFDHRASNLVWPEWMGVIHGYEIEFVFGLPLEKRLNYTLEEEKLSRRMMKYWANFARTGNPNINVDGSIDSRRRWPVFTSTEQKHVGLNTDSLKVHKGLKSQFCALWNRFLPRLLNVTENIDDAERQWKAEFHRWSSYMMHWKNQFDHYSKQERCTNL

With `O=C([C@@H](F)[C@H](F)CCc1ccc2c(c1)OCO2)N1CCCCC1` [compound 2, analog 2], half-maximal inhibition (IC50) required 51.7 µM.
